Structures can show the parent of a compound that is named as a salt.

The target in the test is T1, glycine transporter-1 (GlyT-1) (Homo sapiens, UniProt P48067).
T1 construct: JAR cells (ATCC#HTB-144), which endogenously express GlyT-1; host or cells: JAR human choriocarcinoma cells
T1 sequence (P48067 1-706): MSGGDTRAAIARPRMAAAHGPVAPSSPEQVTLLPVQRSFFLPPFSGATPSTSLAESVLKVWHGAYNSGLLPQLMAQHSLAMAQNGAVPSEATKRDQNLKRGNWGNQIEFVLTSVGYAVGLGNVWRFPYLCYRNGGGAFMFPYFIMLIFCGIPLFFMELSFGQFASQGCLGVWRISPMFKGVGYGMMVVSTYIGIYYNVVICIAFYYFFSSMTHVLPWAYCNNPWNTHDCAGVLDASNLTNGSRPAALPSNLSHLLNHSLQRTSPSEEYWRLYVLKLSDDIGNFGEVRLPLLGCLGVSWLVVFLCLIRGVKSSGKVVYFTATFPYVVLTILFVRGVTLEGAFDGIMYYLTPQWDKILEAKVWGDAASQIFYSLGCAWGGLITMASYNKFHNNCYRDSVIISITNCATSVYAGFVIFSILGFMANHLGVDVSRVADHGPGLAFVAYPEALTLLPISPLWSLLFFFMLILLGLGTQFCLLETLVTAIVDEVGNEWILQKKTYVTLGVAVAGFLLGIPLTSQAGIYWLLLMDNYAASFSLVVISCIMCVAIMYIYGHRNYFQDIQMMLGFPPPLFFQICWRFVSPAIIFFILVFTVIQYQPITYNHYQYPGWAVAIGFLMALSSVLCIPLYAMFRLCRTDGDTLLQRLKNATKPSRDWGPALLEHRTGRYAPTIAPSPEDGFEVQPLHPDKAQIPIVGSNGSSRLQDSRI
The experiment in a line: [14C]glycine uptake assay in JAR cells endogenously expressing GlyT-1 (scintillation proximity). It is filed as cell-based. As to conditions: JAR cells, [14C]glycine 5 μM, 3 hour incubation; read-out: GlyT-1 IC50. On the procedure: The inhibitory activity of compounds of the invention against the glycine transporter-1 (GlyT-1) can be determined by the following scintillation proximity assay. The potency of each compound was assessed in inhibiting the uptake of radiolabeled glycine ([^14C]glycine) using the human choriocarcinoma cell line, JAR cells (ATCC#HTB-144), which endogenously express GlyT-1. In brief, 50,000 JARS cells were plated per well of tissue culture treated 96-well Cytostar-T plate (PerkinElmer) in RPMI media supplemented with 10% heat inactivated FBS and allowed to attach overnight at 37° C. and 5% CO2. Compounds were serially diluted 3-fold in DMSO generating a nine (9) data point response curve for each compound. Two replicates were performed per determination. The compounds were then diluted into Uptake Buffer (10 mM Hepes, 120 mM NaCl, 2 mM KCl, 1 mM CaCl2 and 1 mM MgCl2, 5 mM Alanine, pH 7.4) with a final DMSO concentration of 0.75% (v/v). Following the overnight incubation, the media was replaced with Uptake Buffer in the presence or absence of diluted compound and pre-incubated at room temperature for 10 minutes prior to the addition of [^14C]glycine at a final concentration of 5 μM. Following a 3 hour incubation period at 37° C. and 5% CO2, the plates were sealed and placed at room temperature in the dark for 15 minutes prior to quantification of incorporated radioactivity using a MicroBeta Trilux scintillation plate reader (PerkinElmer). Data were fit into a four-parameter model to determine the inhibitor concentration at half-maximal response (IC50). The assay window was established by control wells incubated with [^14C]glycine in the presence or absence of 10 mM non-labeled glycine. A dose response curve for a synthesized reference standard was generated on every plate as a positive control.
On the technique in general: In a scintillation proximity assay essentially only radioactivity close to the scintillant gives light.
As for `CCC(F)(F)S(=O)(=O)N1CCN(C2(CNC(=O)c3ccc(C(F)(F)F)cc3Cl)CCC(F)(F)CC2)CC1` [compound 251, 2-Chloro-N-((1-(4-(1,1-difluoropropylsulfonyl)piperazin-1-yl)-4,4-difluorocyclohexyl)methyl)-4-(trifluoromethyl) benzamide Hydrochloride], the IC50 was determined as 987 nM.
For `Cn1cnc(S(=O)(=O)N2CCN(C3(CNC(=O)c4c(F)cccc4C(F)(F)F)CCC(F)(F)CC3)CC2)c1` [compound 172, N-((4,4-Difluoro-1-(4-(1-methyl-1H-imidazol-4-ylsulfonyl)piperazin-1-yl)cyclohexyl)methyl)-2-fluoro-6-(trifluoromethyl)benzamide Hydrochloride], the IC50 was 3 nM.
The value for `CCC(F)S(=O)(=O)N1CCN(C2(CNC(=O)c3ccc(C(F)(F)F)cc3Cl)CCC(F)(F)CC2)CC1` (stereo not drawn) [compound 244, 2-Chloro-N-((4,4-difluoro-l-(4-(1-fluoropropylsulfonyl)piperazin-1-yl)cyclohexyl)methyl)-4-(trifluoromethyl)benzamide Hydrochloride] was 51 nM; that for `CCCS(=O)(=O)N1CCN(C2(CNC(=O)c3ccccc3C)CCC(F)(F)CC2)CC1` [compound 134, N-((4,4-Difluoro-1-(4-(propylsulfonyl)piperazin-1-yl)cyclohexyl)methyl)-2-methylbenzamide Hydrochloride] was 70 nM.
The value for `CCCS(=O)(=O)N1CCN(C2(CNC(=O)c3ccc(C(F)(F)F)cc3F)CCC(F)(F)CC2)CC1` [compound 150, N-((4,4-Difluoro-1-(4-(propylsulfonyl)piperazin-1-yl)cyclohexyl)methyl)-2-fluoro-4-(trifluoromethyl)benzamide Hydrochloride] was 61 nM; that for `Cn1cnc(S(=O)(=O)N2CCN(C3(CNC(=O)c4ccc(C(F)(F)F)cc4Cl)CCC(F)(F)CC3)CC2)c1` [compound 171, N-((4,4-Difluoro-1-(4-(1-methyl-1H-imidazol-4-ylsulfonyl)piperazin-1-yl)cyclohexyl)methyl)-2-chloro-4-(trifluoromethyl)benzamide Hydrochloride] was 2 nM; that for `CCCS(=O)(=O)N1CCN(C2(CNC(=O)c3c(Cl)cccc3OC)CCC(F)(F)CC2)CC1` [compound 152, 2-Chloro-N-((4,4-difluoro-1-(4-(propylsulfonyl)piperazin-1-yl)cyclohexyl)methyl)-6-methoxybenzamide Hydrochloride] was 34 nM.
`CCCS(=O)(=O)N1CCN(C2(CNC(=O)c3ccc(Cl)cc3)CCCC2)CC1` [compound 73, 4-Chloro-N-((1-(4-(propylsulfonyl)piperazin-1-yl)cyclopentyl)methyl) benzamide Hydrochloride]: the IC50 worked out at 1990 nM.
The value for `CCCS(=O)(=O)N1CCN(C2(CNC(=O)c3ccccc3-c3ccccc3)CCCCC2)CC1` [compound 34, N-((1-(4-(Propylsulfonyl)piperazin-1-yl)cyclohexyl)methyl) biphenyl-2-carboxamide Hydrochloride] was 646 nM.
With `CCCS(=O)(=O)N1CCN(C2(CNC(=O)c3ccc(F)cc3C)CCC(F)(F)CC2)CC1` [compound 145, N-((4,4-Difluoro-1-(4-(propylsulfonyl)piperazin-1-yl)cyclohexyl)methyl)-4-fluoro-2-methylbenzamide Hydrochloride] the figure was 52 nM.
For `CCCS(=O)(=O)N1CCN(C2(CNC(=O)c3c(C)cccc3C)CCC(F)(F)CC2)CC1` [compound 146, N-((4,4-Difluoro-1-(4-(propylsulfonyl)piperazin-1-yl)cyclohexyl)methyl)-2,6-dimethylbenzamide Hydrochloride], the half-maximal inhibitory concentration (IC50) came to 30 nM.
With `CCS(=O)(=O)N1CCN(C2(CNC(=O)c3cc(F)c(F)cc3Cl)CCC(F)(F)CC2)CC1` [compound 214, 2-Chloro-N-((1-(4-(ethylsulfonyl)piperazin-1-yl)-4,4-difluorocyclohexyl)methyl)-4,5-difluorobenzamide Hydrochloride] the figure was 329 nM; with “N-((4,4-Difluoro-1-(1-(1- methyl-1H-1,2,3-triazol-4- ylsulfonyl)piperidin-4- yl)cyclohexyl)methyl)-2,4- bis(trifluoromethyl) benzamide [compound 274]”, 3 nM.
With `CCCS(=O)(=O)N1CCN(C2(C(C)NC(=O)c3c(F)cccc3F)CCC(F)(F)CC2)CC1` (centres unmarked) [compound 196, N-(1-(4,4-Difluoro-1-(4-(propylsulfonyl)piperazin-1-yl)cyclohexyl)ethyl)-2,6-difluorobenzamide Hydrochloride] the figure was 3780 nM; with `CC(=O)CS(=O)(=O)N1CCN(C2(CNC(=O)c3ccc(C(F)(F)F)cc3Cl)CCC(F)(F)CC2)CC1` [compound 280, 2-Chloro-N-((4,4-difluoro-1-(4-(2-oxopropylsulfonyl)piper-azin-1-yl)cyclohexyl)methyl)-4-(trifluoromethyl) benzamide Hydrochloride], 61 nM.
Consider `COc1cccc(Cl)c1C(=O)NCC1(N2CCN(S(=O)(=O)c3cn(C)cn3)CC2)CCC(F)(F)CC1` [compound 173, 2-Chloro-N-((4,4-Difluoro-1-(4-(1-methyl-1H-imidazol-4-ylsulfonyl)piperazin-1-yl)cyclohexyl)methyl)-6-methoxybenzamide Hydrochloride], for which the IC50 turned out to be 2 nM.
The value for `CCCS(=O)(=O)N1CCN(C2(CNC(=O)c3c(C)cccc3Cl)CCC(F)(F)CC2)CC1` [compound 155, 2-Chloro-N-((4,4-difluoro-1-(4-(propylsulfonyl)piperazin-1-yl)cyclohexyl)methyl)-6-methylbenzamide Hydrochloride] was 26 nM; that for `Cc1cccc(Cl)c1C(=O)NCC1(N2CCN(S(=O)(=O)c3cn(C)cn3)CC2)CCC(F)(F)CC1` [compound 181, 2-Chloro-N-((4,4-difluoro-1-(4-(1-methyl-1H-imidazol-4-ylsulfonyl)piperazin-1-yl)cyclohexyl)methyl)-6-methylbenzamide Hydrochloride] was 2 nM.
The value for `Cc1cc(F)ccc1C(=O)NCC1(N2CCN(S(=O)(=O)c3cn(C)cn3)CC2)CCC(F)(F)CC1` [compound 184, N-((4,4-Difluoro-1-(4-(1-methyl-1H-imidazol-4-ylsulfonyl)piperazin-1-yl)cyclohexyl)methyl)-4-fluoro-2-methylbenzamide Hydrochloride] was 13 nM; that for `Cn1cnc(S(=O)(=O)N2CCN(C3(CNC(=O)c4c(F)cccc4OC(F)(F)F)CCC(F)(F)CC3)CC2)c1` [compound 186, N-((4,4-Difluoro-1-(4-(1-methyl-1H-imidazol-4-ylsulfonyl)piperazin-1-yl)cyclohexyl)methyl)-2-fluoro-6-(trifluoromethoxy) benzamide Hydrochloride] was 1 nM.
With `Cn1cc(S(=O)(=O)N2CCN(C3(CNC(=O)c4cc(F)c(Cl)cc4F)CCC(F)(F)CC3)CC2)nn1` [compound 238, 4-Chloro-N-((4,4-difluoro-1-(4-(1-methyl-1H-1,2,3-triazol-4-ylsulfonyl)piperazin-1-yl)cyclohexyl)methyl)-2,5-difluorobenzamide Hydrochloride], the IC50 was 12 nM.
The value for `Cc1cc(Cl)ccc1C(=O)NCC1(N2CCN(S(=O)(=O)c3cn(C)cn3)CC2)CCC(F)(F)CC1` [compound 168, 4-Chloro-N-((4,4-difluoro-1-(4-(1-methyl-1H-imidazol-4-ylsulfonyl)piperazin-1-yl)cyclohexyl)methyl)-2-methylbenzamide Hydrochloride] was 15 nM; that for `CCCS(=O)(=O)N1CCN(C2(CNC(=O)c3ccc(F)cc3Cl)CCC(F)(F)CC2)CC1` [compound 154, 2-Chloro-N-((4,4-difluoro-1-(4-(propylsulfonyl)piperazin-1-yl)cyclohexyl)methyl)-4-fluorobenzamide Hydrochloride] was 38 nM.

By IC50 is commonly meant the concentration at which inhibition is half-maximal.

For the origin of these results see US9045445B2, “Glycine transporter-1 inhibitors, methods of making them, and uses thereof” (Albany Molecular Research, Inc., priority 2010, dated 2015).
